From ChEMBL document CHEMBL4507304, “Data for DCP probe TP-021” (2021)

Legend:
[1] = target: Phosphatidylinositol 4,5-bisphosphate 3-kinase catalytic subunit beta isoform (Homo sapiens) (UniProt P42338); conditions: Compound concentration 1000.0 nM
[2] = system: Phosphatidylinositol 4,5-bisphosphate 3-kinase catalytic subunit alpha isoform (Homo sapiens), P42336 [I800L]; conditions: Compound concentration 1000.0 nM
[3] = system: Proto-oncogene tyrosine-protein kinase receptor Ret (Homo sapiens), P07949 [V804L]; conditions: Compound concentration 1000.0 nM
[4] = target: Tyrosine-protein kinase BTK (Homo sapiens) (UniProt Q06187); conditions: Compound concentration 1000.0 nM
[5] = target: Mitogen-activated protein kinase 11 (Homo sapiens) (UniProt Q15759); conditions: Compound concentration 1000.0 nM
[6] = target: Serine/threonine-protein kinase BRSK2 (Homo sapiens) (UniProt Q8IWQ3); conditions: Compound concentration 1000.0 nM
[7] = target: Tyrosine-protein kinase CSK (Homo sapiens) (UniProt P41240); conditions: Compound concentration 1000.0 nM
[8] = target: Serine/threonine-protein kinase ULK3 (Homo sapiens) (UniProt Q6PHR2); conditions: Compound concentration 1000.0 nM
[9] = target: Ephrin type-B receptor 3 (Homo sapiens) (UniProt P54753); conditions: Compound concentration 1000.0 nM
[10] = target: SRSF protein kinase 1 (Homo sapiens) (UniProt Q96SB4); conditions: Compound concentration 1000.0 nM
[11] = target: Tyrosine-protein kinase JAK1 (Homo sapiens) (UniProt P23458); conditions: Compound concentration 1000.0 nM
[12] = target: Tyrosine-protein kinase ABL1 (Homo sapiens) (UniProt P00519); conditions: Compound concentration 1000.0 nM
[13] = target: Dual specificity protein kinase CLK3 (Homo sapiens) (UniProt P49761); conditions: Compound concentration 1000.0 nM
[14] = target: Ribosomal protein S6 kinase alpha-2 (Homo sapiens) (UniProt Q15349); conditions: Compound concentration 1000.0 nM
[15] = target: Tyrosine-protein kinase Fes/Fps (Homo sapiens) (UniProt P07332); conditions: Compound concentration 1000.0 nM
[16] = target: D(4) dopamine receptor (Homo sapiens) (UniProt P21917); conditions: Compound concentration 10.0 uM
[17] = target: Ephrin type-A receptor 1 (Homo sapiens) (UniProt P21709); conditions: Compound concentration 1000.0 nM
[18] = target: Serine/threonine-protein kinase MARK1 (Homo sapiens) (UniProt Q9P0L2); conditions: Compound concentration 1000.0 nM
[19] = target: MAP kinase-activated protein kinase 5 (Homo sapiens) (UniProt Q8IW41); conditions: Compound concentration 1000.0 nM
[20] = target: Ribosomal protein S6 kinase alpha-3 (Homo sapiens) (UniProt P51812); conditions: Compound concentration 1000.0 nM
[21] = target: Serine/threonine-protein kinase ULK1 (Homo sapiens) (UniProt O75385); conditions: Compound concentration 1000.0 nM
[22] = system: Phosphatidylinositol 4,5-bisphosphate 3-kinase catalytic subunit alpha isoform (Homo sapiens), P42336 [Q546K]; conditions: Compound concentration 1000.0 nM
[23] = target: Serine/threonine-protein kinase Nek2 (Homo sapiens) (UniProt P51955); conditions: Compound concentration 1000.0 nM
[24] = system: Tyrosine-protein kinase ABL1 (Homo sapiens), P00519 [F317I]; conditions: Compound concentration 1000.0 nM
[25] = target: Tyrosine-protein kinase HCK (Homo sapiens) (UniProt P08631); conditions: Compound concentration 1000.0 nM
[26] = system: Tyrosine-protein kinase ABL1 (Homo sapiens), P00519 [Q252H]; conditions: Compound concentration 1000.0 nM
[27] = target: Phosphatidylinositol 4,5-bisphosphate 3-kinase catalytic subunit alpha isoform (Homo sapiens) (UniProt P42336); conditions: Compound concentration 1000.0 nM
[28] = target: Tyrosine-protein kinase TXK (Homo sapiens) (UniProt P42681); conditions: Compound concentration 1000.0 nM
[29] = target: Serine/threonine-protein kinase Sgk1 (Homo sapiens) (UniProt O00141); conditions: Compound concentration 1000.0 nM
[30] = system: Epidermal growth factor receptor (Homo sapiens), P00533 [L858R]; conditions: Compound concentration 1000.0 nM
[31] = target: GABA-A receptor; anion channel (Rattus norvegicus) (UniProt O09028+P15431+P18506+P18508+P19969+P20236+P23574+P23576+P28471+P28473+P30191+P62813+P63079+P63138+Q91ZM7+Q9ES14); conditions: Compound concentration 10.0 uM
[32] = target: Serine/threonine-protein kinase pim-2 (Homo sapiens) (UniProt Q9P1W9); conditions: Compound concentration 1000.0 nM
[33] = system: Phosphatidylinositol 4,5-bisphosphate 3-kinase catalytic subunit alpha isoform (Homo sapiens), P42336 [E542K]; conditions: Compound concentration 1000.0 nM
[34] = target: Mitogen-activated protein kinase kinase kinase 19 (Homo sapiens) (UniProt Q56UN5); conditions: Compound concentration 1000.0 nM
[35] = target: Dual specificity protein kinase CLK1 (Homo sapiens) (UniProt P49759); conditions: Compound concentration 1000.0 nM
[36] = target: Tyrosine-protein kinase Lyn (Homo sapiens) (UniProt P07948); conditions: Compound concentration 1000.0 nM
[37] = target: Serine/threonine-protein kinase tousled-like 1 (Homo sapiens) (UniProt Q9UKI8); conditions: Compound concentration 1000.0 nM
[38] = target: Mast/stem cell growth factor receptor Kit (Homo sapiens) (UniProt P10721); conditions: Compound concentration 1000.0 nM
[39] = target: Mitogen-activated protein kinase kinase kinase kinase 3 (Homo sapiens) (UniProt Q8IVH8); conditions: Compound concentration 1000.0 nM
[40] = target: Serine/threonine-protein kinase SIK2 (Homo sapiens) (UniProt Q9H0K1); conditions: Compound concentration 1000.0 nM
[41] = target: Serine/threonine-protein kinase TAO3 (Homo sapiens) (UniProt Q9H2K8); conditions: Compound concentration 1000.0 nM
[42] = target: Tyrosine-protein kinase Fyn (Homo sapiens) (UniProt P06241); conditions: Compound concentration 1000.0 nM
[43] = target: Proto-oncogene tyrosine-protein kinase receptor Ret (Homo sapiens) (UniProt P07949); conditions: Compound concentration 1000.0 nM

Chain of Serine/threonine-protein kinase ULK1 (Homo sapiens) (O75385 whole entry, canonical isoform): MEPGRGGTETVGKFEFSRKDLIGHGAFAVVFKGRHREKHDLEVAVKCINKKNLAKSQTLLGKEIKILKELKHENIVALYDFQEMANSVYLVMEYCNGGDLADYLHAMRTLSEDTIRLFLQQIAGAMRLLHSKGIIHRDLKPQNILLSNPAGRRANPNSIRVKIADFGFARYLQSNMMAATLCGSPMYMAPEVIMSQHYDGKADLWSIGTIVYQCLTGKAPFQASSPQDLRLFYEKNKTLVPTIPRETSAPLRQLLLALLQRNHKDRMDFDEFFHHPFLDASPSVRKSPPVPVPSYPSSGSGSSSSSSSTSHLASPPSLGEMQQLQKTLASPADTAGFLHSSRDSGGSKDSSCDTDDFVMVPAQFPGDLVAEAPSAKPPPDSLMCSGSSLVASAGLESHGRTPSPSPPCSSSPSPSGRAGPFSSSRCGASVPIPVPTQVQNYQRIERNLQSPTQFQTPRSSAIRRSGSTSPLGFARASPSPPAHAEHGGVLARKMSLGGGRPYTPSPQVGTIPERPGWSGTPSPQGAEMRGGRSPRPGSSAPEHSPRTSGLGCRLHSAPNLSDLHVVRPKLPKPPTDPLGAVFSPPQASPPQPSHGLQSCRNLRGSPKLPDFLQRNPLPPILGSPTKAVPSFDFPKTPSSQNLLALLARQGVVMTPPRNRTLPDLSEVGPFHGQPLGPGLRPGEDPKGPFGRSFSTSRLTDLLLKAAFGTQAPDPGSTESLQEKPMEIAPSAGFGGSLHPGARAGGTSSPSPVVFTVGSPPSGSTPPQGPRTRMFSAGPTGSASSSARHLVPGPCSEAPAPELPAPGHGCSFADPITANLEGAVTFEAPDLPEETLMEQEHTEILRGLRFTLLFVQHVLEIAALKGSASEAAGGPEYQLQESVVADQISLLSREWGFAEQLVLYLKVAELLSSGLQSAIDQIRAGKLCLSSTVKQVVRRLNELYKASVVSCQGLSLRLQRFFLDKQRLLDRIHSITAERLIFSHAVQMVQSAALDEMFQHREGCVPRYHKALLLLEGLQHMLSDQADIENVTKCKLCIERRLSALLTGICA
Chain of MAP kinase-activated protein kinase 5 (Homo sapiens) (Q8IW41 whole entry): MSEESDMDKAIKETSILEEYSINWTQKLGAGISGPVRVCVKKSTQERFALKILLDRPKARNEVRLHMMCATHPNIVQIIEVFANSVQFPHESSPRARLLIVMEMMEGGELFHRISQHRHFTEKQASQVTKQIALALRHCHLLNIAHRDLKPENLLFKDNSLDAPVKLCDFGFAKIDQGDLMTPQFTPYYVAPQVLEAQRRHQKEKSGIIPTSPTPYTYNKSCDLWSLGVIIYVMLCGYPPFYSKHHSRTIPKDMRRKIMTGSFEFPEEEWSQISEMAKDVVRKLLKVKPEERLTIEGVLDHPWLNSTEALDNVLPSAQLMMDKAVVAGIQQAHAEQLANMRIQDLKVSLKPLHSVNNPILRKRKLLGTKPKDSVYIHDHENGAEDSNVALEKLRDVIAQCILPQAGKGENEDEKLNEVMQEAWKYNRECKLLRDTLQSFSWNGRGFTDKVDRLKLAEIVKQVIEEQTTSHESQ
Chain of Mitogen-activated protein kinase 11 (Homo sapiens) (Q15759 whole entry): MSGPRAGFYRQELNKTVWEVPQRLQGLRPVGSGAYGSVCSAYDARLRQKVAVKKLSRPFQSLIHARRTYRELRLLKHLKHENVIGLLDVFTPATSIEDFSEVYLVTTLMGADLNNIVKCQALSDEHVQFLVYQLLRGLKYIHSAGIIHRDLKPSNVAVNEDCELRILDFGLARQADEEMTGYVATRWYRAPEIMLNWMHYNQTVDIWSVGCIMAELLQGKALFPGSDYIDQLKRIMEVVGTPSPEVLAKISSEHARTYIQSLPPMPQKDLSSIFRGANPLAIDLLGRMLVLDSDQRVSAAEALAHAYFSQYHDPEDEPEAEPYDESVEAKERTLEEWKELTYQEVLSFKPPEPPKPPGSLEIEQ
Chain of Tyrosine-protein kinase TXK (Homo sapiens) (P42681 whole entry): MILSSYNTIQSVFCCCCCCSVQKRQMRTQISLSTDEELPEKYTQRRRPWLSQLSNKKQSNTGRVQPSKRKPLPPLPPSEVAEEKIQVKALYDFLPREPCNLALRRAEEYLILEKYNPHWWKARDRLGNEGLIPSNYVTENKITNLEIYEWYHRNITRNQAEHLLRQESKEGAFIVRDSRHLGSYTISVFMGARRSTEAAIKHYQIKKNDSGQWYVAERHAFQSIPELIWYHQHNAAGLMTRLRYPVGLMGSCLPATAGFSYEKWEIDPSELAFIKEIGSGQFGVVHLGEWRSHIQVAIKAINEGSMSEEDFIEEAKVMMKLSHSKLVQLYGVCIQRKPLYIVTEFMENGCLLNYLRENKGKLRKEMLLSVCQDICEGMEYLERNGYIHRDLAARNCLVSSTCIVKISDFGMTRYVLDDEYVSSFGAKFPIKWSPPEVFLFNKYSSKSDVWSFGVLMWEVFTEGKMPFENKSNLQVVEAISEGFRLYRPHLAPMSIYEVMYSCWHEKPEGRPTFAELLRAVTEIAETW
Chain of Tyrosine-protein kinase Fyn (Homo sapiens) (P06241 2-537 limits assumed): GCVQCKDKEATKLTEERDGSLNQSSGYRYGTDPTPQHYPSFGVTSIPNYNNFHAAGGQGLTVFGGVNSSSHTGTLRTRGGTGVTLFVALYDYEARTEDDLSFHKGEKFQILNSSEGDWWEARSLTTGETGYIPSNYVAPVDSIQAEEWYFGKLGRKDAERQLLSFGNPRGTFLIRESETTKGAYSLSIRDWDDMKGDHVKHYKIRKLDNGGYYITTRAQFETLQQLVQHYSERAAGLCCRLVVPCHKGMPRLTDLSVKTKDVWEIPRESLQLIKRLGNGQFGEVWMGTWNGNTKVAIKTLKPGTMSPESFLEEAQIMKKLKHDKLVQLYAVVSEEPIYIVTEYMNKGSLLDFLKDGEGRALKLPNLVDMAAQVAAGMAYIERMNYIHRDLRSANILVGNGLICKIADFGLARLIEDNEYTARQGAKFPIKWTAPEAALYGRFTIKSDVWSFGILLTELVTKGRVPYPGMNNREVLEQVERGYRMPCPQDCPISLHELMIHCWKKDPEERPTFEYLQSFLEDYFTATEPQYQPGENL
Chain of Dual specificity protein kinase CLK3 (Homo sapiens) (P49761 whole entry, looked up): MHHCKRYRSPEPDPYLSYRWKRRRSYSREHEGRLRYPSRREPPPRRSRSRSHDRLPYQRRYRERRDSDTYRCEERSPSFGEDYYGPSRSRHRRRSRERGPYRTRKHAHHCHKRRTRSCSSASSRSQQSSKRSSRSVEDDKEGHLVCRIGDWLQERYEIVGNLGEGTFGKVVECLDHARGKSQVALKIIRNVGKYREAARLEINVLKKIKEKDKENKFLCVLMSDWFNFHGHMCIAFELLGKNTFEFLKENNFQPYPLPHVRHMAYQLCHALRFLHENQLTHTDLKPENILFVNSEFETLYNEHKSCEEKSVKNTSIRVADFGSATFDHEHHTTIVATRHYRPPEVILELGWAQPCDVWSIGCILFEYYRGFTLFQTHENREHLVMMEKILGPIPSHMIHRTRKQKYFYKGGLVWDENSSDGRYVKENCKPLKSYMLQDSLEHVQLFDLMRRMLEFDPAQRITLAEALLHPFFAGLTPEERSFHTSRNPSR
Chain of Ribosomal protein S6 kinase alpha-2 (Homo sapiens) (Q15349 whole entry): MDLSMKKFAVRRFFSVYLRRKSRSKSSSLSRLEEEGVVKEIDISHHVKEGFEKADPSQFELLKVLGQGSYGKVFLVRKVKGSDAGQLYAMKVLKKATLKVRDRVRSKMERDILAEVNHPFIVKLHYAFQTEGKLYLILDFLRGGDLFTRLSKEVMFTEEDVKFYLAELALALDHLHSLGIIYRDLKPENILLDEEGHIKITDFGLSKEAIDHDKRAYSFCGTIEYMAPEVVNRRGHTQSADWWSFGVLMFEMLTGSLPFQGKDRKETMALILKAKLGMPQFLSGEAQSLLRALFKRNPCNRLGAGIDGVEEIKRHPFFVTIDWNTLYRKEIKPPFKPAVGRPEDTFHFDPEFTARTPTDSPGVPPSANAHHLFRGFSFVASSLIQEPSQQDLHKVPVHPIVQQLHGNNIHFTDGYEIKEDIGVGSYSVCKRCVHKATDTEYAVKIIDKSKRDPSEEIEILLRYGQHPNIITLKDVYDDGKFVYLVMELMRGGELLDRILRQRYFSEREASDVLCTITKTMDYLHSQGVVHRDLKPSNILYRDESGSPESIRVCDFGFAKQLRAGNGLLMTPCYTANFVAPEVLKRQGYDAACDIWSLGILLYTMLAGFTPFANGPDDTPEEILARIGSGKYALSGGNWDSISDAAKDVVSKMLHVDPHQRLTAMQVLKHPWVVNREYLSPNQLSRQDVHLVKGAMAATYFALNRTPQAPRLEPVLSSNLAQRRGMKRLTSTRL
Chain of Dual specificity protein kinase CLK1 (Homo sapiens) (P49759 whole entry, looked up): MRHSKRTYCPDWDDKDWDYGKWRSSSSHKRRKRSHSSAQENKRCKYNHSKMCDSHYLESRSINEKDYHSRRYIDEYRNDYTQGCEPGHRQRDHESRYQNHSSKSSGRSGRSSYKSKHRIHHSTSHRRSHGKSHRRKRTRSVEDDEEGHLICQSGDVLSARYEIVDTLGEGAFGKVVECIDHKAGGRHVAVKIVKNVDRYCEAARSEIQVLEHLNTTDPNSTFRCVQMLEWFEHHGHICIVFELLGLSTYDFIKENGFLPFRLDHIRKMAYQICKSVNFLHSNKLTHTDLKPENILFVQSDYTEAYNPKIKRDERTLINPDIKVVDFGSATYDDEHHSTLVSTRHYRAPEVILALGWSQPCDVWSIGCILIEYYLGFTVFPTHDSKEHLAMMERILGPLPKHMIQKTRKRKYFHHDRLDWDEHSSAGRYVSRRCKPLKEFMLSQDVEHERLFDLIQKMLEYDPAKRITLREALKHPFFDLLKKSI
Chain of Serine/threonine-protein kinase pim-2 (Homo sapiens) (Q9P1W9 whole entry, looked up, canonical isoform): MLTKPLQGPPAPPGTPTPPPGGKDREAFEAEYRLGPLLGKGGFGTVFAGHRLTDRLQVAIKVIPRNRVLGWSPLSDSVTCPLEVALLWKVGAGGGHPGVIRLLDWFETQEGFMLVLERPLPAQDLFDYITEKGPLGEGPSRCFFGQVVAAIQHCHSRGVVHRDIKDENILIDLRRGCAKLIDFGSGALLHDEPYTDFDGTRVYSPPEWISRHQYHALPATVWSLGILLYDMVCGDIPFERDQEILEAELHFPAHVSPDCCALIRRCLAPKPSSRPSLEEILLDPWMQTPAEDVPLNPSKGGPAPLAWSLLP

N#Cc1ccc(Nc2ccc3[nH]c(=O)[nH]c3c2)c(Cl)c1
inactive: residual activity [1] 100% | residual activity [2] 77% | residual activity [3] 100% | residual activity [4] 100% | residual activity [5] 100% | residual activity [6] 100% | residual activity [7] 89% | residual activity [8] 100% | residual activity [9] 100% | residual activity [10] 95% | residual activity [11] 97% | residual activity [12] 100% | residual activity [13] 96% | residual activity [14] 100% | residual activity [15] 100% | inhibition [16] -2.02% | residual activity [17] 91% | residual activity [18] 90% | residual activity [19] 92% | residual activity [20] 100% | residual activity [21] 81% | residual activity [22] 93% | residual activity [23] 93% | residual activity [24] 92% | residual activity [25] 100% | residual activity [26] 89% | residual activity [27] 77% | residual activity [28] 87% | residual activity [29] 100% | residual activity [30] 100% | inhibition [31] 10.2% | residual activity [32] 83% | residual activity [33] 70% | residual activity [34] 100% | residual activity [35] 100% | residual activity [36] 78% | residual activity [37] 100% | residual activity [38] 100% | residual activity [39] 88% | residual activity [40] 100% | residual activity [41] 100% | residual activity [42] 89% | residual activity [43] 97%

O=C1CCc2cc(Nc3cc(OC4CCOCC4)c([N+](=O)[O-])cc3Cl)ccc2N1
inactive: residual activity [1] 97% | residual activity [2] 63% | residual activity [3] 91% | residual activity [4] 100% | residual activity [5] 88% | residual activity [6] 100% | residual activity [7] 98% | residual activity [8] 100% | residual activity [9] 88% | residual activity [10] 73% | residual activity [11] 100% | residual activity [12] 98% | residual activity [13] 100% | residual activity [14] 100% | residual activity [15] 100% | inhibition [16] -2.6% | residual activity [17] 81% | residual activity [18] 99% | residual activity [19] 78% | residual activity [20] 100% | residual activity [21] 87% | residual activity [22] 70% | residual activity [23] 95% | residual activity [24] 100% | residual activity [25] 100% | residual activity [26] 79% | residual activity [27] 79% | residual activity [28] 79% | residual activity [29] 100% | residual activity [30] 100% | inhibition [31] 29.2% | residual activity [32] 84% | residual activity [33] 71% | residual activity [34] 100% | residual activity [35] 84% | residual activity [36] 93% | residual activity [37] 92% | residual activity [38] 99% | residual activity [39] 91% | residual activity [40] 100% | residual activity [41] 81% | residual activity [42] 64% | residual activity [43] 89%
